Experimental findings from patent publication US9714240B2 (PharmAkea, Inc., priority 2013, dated 2017) are described below.

Each structure is given as a SMILES string.

In the assay the target is T1, human autotaxin (Homo sapiens, UniProt Q13822).
T1 construct: Conditioned media is collected from confluent Hep3B cells and concentrated 20-fold; endogenous in cells; host or cells: Hep3B human hepatocellular carcinoma cells (concentrated conditioned medium)
Briefly: Human Autotaxin Assay (choline release from LPC). The format is biochemical. As to conditions: ATX in concentrated conditioned media from Hep3B cells, substrate LPC 14:0 100 uM, absorbance at 555 nm. On the procedure:
ATX activity is assayed in concentrated conditioned media from Hep3B human hepatocellular carcinoma cells by measuring the amount of choline released from the substrate, lysophosphatidylcholine (LPC) as it is cleaved to LPA. Conditioned media is collected from confluent Hep3B cells and concentrated 20-fold using Centriprep-30 filter devices (Millipore). To assay for autotaxin inhibition, 10-20 μL of the concentrated conditioned media is incubated with 2.5 μL of a test compound in DMSO and 72.5-82.5 μL lyso-PLD buffer (100 mM Tris pH 9, 500 mM NaCl, 5 mM MgCl2, 5 mM CaCl2, 0.05% Triton X-100 in the presence or absence of 0.2% fatty-acid-free human serum albumin) for 15 min at 37° C. After the 15 min incubation, 5 ul of 2 mM LPC (14:0; Avanti Polar Lipids Cat#855575C) diluted in lyso-PLD buffer is added for a final concentration of 100 uM and the incubation continues for 1.5-3 hours at 37° C. 100 μl of a color mix containing 4.5 mM 4-aminoantipyrine, 2.7 mM N-ethyl-N-(2-hydroxy-3-sulfopropyl)-m-toluidine, 21 units/ml horseradish peroxidase and 3 units/ml choline oxidase in 50 mM Tris, pH 8, 4.5 mM MgCl2 is added and the incubation continued for 15 minutes at room temperature before reading the absorbance at 555 nm.
Regarding `N#C/C(=C\c1cn(Cc2ccc(C(F)(F)F)nc2)c2cc(Cl)ccc12)c1ccc(C(=O)O)cc1` [Compound 1-27, 4-[(Z)-2-[6-chloro-1-[[6-(trifluoromethyl)-3-pyridyl]methyl]indol-3-yl]-1-cyano-vinyl]benzoic Acid], the IC50 (in general, the midpoint of a concentration-inhibition curve) is at most 500 nM.

The molecule `COc1ccc2c(/C=C(\C#N)c3ccc(C(=O)O)cc3)cn(Cc3ccc(OC)nc3)c2c1` [Compound 1-29, 4-[(Z)-1-cyano-2-[6-methoxy-1-[(6-methoxy-3-pyridyl)methyl]indol-3-yl]vinyl]benzoic Acid] displayed a half-maximal inhibitory concentration (IC50) of at most 500 nM.

`N#C/C(=C\c1cn(Cc2ccc(OC(F)(F)F)cc2)c2cc(Cl)ccc12)c1ccc(C(=O)O)cc1` [Compound 1-45, (Z)-4-(2-(6-chloro-1-(4-(trifluoromethoxy)benzyl)-1H-indol-3-yl)-1-cyanovinyl)benzoic Acid]: the IC50 was 500 to 10000 nM.

`N#C/C(=C\c1cn(Cc2ccc(F)cc2C(F)(F)F)c2cc(Cl)ccc12)c1ccc(C(=O)O)cc1` [Compound 1-46, (Z)-4-(2-(6-chloro-1-(4-fluoro-2-(trifluoromethyl)benzyl)-1H-indol-3-yl)-1-cyanovinyl)benzoic Acid] displayed an IC50 above 10000 nM.

`N#C/C(=C\c1cn(Cc2ccc(OC(F)F)cc2F)c2cc(Cl)ccc12)c1ccc(C(=O)O)cc1` [Compound 1-47, (Z)-4-(2-(6-chloro-1-(4-(difluoromethoxy)-2-fluorobenzyl)-1H-indol-3-yl)-1-cyanovinyl)benzoic Acid] came in with an IC50 of 500 to 10000 nM.

In the case of `N#C/C(=C\c1cn(Cc2ccc(OCC(F)(F)F)nc2)c2cc(Cl)ccc12)c1ccc(C(=O)O)cc1` [Compound 1-48, (Z)-4-(2-(6-chloro-1-((6-(2,2,2-trifluoroethoxy)pyridin-3-yl)methyl)-1H-indol-3-yl)-1-cyanovinyl)benzoic Acid], the IC50 was above 10000 nM.

Regarding `N#C/C(=C\c1cn(Cc2ccc(F)cc2)c2c(F)c(Cl)ccc12)c1ccc(C(=O)O)cc1` [Compound 1-49, (Z)-4-(2-(6-chloro-7-fluoro-1-(4-fluorobenzyl)-1H-indol-3-yl)-1-cyanovinyl)benzoic Acid], the IC50 lay within 500 to 10000 nM.

In turn, `COc1ccc(Cn2cc(/C=C(\C#N)c3ccc(C(=O)O)cc3)c3ccc(Cl)c(F)c32)cn1` [Compound 1-50] registered an IC50 of at most 500 nM.

Regarding `N#C/C(=C\c1cn(Cc2cnc(C(F)(F)F)s2)c2c(F)c(Cl)ccc12)c1ccc(C(=O)O)cc1` [Compound 1-52], the IC50 is at most 500 nM.

Take `CCOc1ccc2c(/C=C(\C#N)c3ccc(C(=O)O)cc3)cn(Cc3ccc(F)cc3)c2c1` [Compound 1-65, (Z)-4-(1-cyano-2-(6-ethoxy-1-(4-fluorobenzyl)-1H-indol-3-yl)vinyl)benzoic Acid]: the IC50 is at most 500 nM.

In turn, `N#C/C(=C\c1cn(Cc2ccc(F)cc2)c2cc([N+](=O)[O-])ccc12)c1ccc(C(=O)O)cc1` [Compound 1-66, (Z)-4-(1-cyano-2-(1-(4-fluorobenzyl)-6-nitro-1H-indol-3-yl)vinyl)benzoic Acid] came in with an IC50 of at most 500 nM.

`CS(=O)(=O)c1ccc2c(/C=C(\C#N)c3ccc(C(=O)O)cc3)cn(Cc3ccc(F)cc3)c2c1` [Compound 1-67, (Z)-4-(1-cyano-2-(1-(4-fluorobenzyl)-6-(methylsulfonyl)-1H-indol-3-yl)vinyl)benzoic Acid]: the IC50 lay within 500 to 10000 nM.

Regarding `N#C/C(=C\c1cn(Cc2ccc(F)cc2)c2cc(OC(F)(F)F)ccc12)c1ccc(C(=O)O)cc1` [Compound 1-75, (Z)-4-(1-cyano-2-(1-(4-fluorobenzyl)-6-trifluoromethoxy-1H-indol-3-yl)vinyl)benzoic Acid], the half-maximal inhibitory concentration (IC50) is at most 500 nM.

The molecule `COc1ccc(Cn2cc(/C=C(\C#N)c3ccc(C(=O)O)cc3)c3ccc(OC(F)(F)F)cc32)cn1` [Compound 1-76] had an IC50 of at most 500 nM.

In the case of `N#C/C(=C\c1cn(Cc2cnc(C(F)(F)F)s2)c2cc(OC(F)(F)F)ccc12)c1ccc(C(=O)O)cc1` [Compound 1-77, (Z)-4-(1-cyano-2-(6-(trifluoromethoxy)-1-((2-(trifluoromethyl)thiazol-5-yl)methyl)-1H-indol-3-yl)vinyl)benzoic Acid], the IC50 was at most 500 nM.
